Test results published in patent US20220132898A1, “COMPOSITION COMPRISING TRANSGLYCOSYLATED STEVIOSIDE AND TRANSGLYCOSYLATED REBAUDIOSIDE A” (CJ CHEILJEDANG CORPORATION, priority 2019, published 2022).
Entries after “also recorded” stand apart in the source; their conditions may differ.

Columns and labels:
[1] = assay type: physicochemical
Experimental: The solubility of Rebaudioside A (RA), Stevioside (STV), α-1,6 transglucosylated Rebaudioside A (RA-Glu) of Example 1-1, and transglucosylated Stevioside (STV-Glu) was measured. In particular, the transglucosylated Stevioside was obtained by reacting Stevioside and sucrose in the presence of a glucosyltransferase in the same manner as in Example 1-1.
6 g of each of Rebaudioside A, Stevioside, transglucosylated Rebaudioside A, and transglucosylated Stevioside was mixed with 10 ml and then dissolved by sonication at 50° C. for 60 minutes. The resultant was incubated for 1 week in a water bath at 5° C., 15° C., 25° C., 35° C., 45° C., or 55° C. Thereafter, the resulting solution was centrifuged at 12000 rpm for 10 minutes, and 1 ml of the supernatant was collected and dried in an oven at 105° C. to measure the solubility.

[2] = Evaluation of actual sweetness and quality of sweetness by panels; assay type: in vivo; conditions: sample dissolved in water, evaluated by panels
Source text: Two samples prepared in Example 1-1 above were independently dissolved in water and provided to panels for evaluation of actual sweetness and the quality of sweetness.

Substance	Solubility (%) [1]	solubility as compared to Stevioside and Rebaudioside A, respectively [1]	Actual Sweetness [2]	Quality of Sweetness [2]
transglucosylated Stevioside [STV-Glu]	≥ 40↑ %	remarkably increased solubility	–	–
α-1,4 transglucosylated Rebaudioside A	–	–	19	Bitter taste is stronger than sweet taste, has greasy
α-1,6 transglucosylated Rebaudioside A [RA-Glu]	≥ 40↑ %	remarkably increased solubility	–	better quality of sweetness; also recorded: Gives sweet taste in the beginning, has a bit of bitter
